These results are taken from PMC10537280, “Chemo-/Regio-Selective Synthesis of Novel Functionalized Spiro[pyrrolidine-2,3′-oxindoles] under Microwave Irradiation and Their Anticancer Activity” (Molecules, 2023).

Read-outs that look alike come from different tables or passages of the source.

Data set [1] has as its system human HepG2 cancer cell lines. The following applies: paclitaxel reference value; ref [82]; read-out: HepG2 Cells IC50; cited from earlier work.
The test system of data set [2] is immortalized liver LO2 normal cell lines. The conditions noted are these: paclitaxel reference value; ref [82]; read-out: LO2 Cells IC50; cited from earlier work.
Data set [3] deals with immortalized lung BEAS-2B normal cell lines. Also noted: method as in PMID 24063429. The conditions noted are these: paclitaxel reference value; ref [80]; read-out: BEAS-2B Cells IC50; cited from earlier work.
Data set [4] deals with human lung A549 cancer cell lines. Also noted: method as in PMID 24063429. The following applies: paclitaxel reference value; ref [80]; read-out: A549 Cells IC50; cited from earlier work.
Data set [5] has as its system immortalized lung BEAS-2B normal cell lines. The experiment in a line: MTT cytotoxicity assay, normal lung BEAS-2B cells. Format: cell-based. The following applies: Homo sapiens, MTT, 72 h, 0.19–100 μM, normal lung cells, read-out: BEAS-2B Cells IC50. The procedure:
(§1) Adenocarcinomic human alveolar basal epithelial (A549) and human hepatoma (HepG2) cancer cell lines, immortalized normal human liver (LO2), human bronchial epithelial (BEAS-2B cells were purchased from [NT], Manassas, VA, USA). […] Invitrogen, Waltham, MA, USA). All cells were incubated at 37 °C in a 5% humidified CO2 incubator). All test compounds were dissolved in DMSO at a final concentration of 50 mM and stored at -20 °C before use. Cytotoxicity was assessed by the MTT (5 mg/mL) assay, as described previously. Briefly, 5 × 10^3 cells per well were seeded in 96-well plates before drug treatments. […] Cells without drug treatment were used as controls. Subsequently, 10 μL of 5 mg/mL MTT solution was added to each well and incubated at 37 °C for 4 h, followed by the addition of 100 μL solubilization buffer (12 mM HCl in a solution of 10% SDS) and overnight incubation. The absorbance, A570 nm, was then determined in each well on the next day. The percentage of cell viability was calculated using the expression: % viability = Atreated/Acontrol × 100, and was given as cytotoxicity (Table 2 and Table 3; […]

Data set [6] relates to human lung A549 cancer cell lines. Briefly: MTT cytotoxicity assay, lung cancer A549 cells. In kind it is cell-based. The conditions noted are these: for IC50: Homo sapiens, A549, MTT, 72 h, 0.19–100 μM, means of at least three independent experiments in duplicates, read-out: A549 Cells IC50. The protocol: as §1
Data set [7] has as its system immortalized liver LO2 normal cell lines. Briefly: MTT cytotoxicity assay, normal liver LO2 cells. In kind it is cell-based. The following applies: Homo sapiens, L02; MTT, 72 h, 0.19–100 μM; normal liver cells; read-out: LO2 Cells IC50. The procedure: as §1
Data set [8] relates to human HepG2 cancer cell lines. The experiment in a line: MTT cytotoxicity assay, liver cancer HepG2 cells. Format: cell-based. The following applies: for IC50: Homo sapiens, HepG2, 72 h, MTT, 72 h, 0.19–100 μM, means of at least three independent experiments in duplicates, read-out: HepG2 Cells IC50. The protocol: as §1

For orientation: IC50 means the concentration that gives 50% inhibition. Take `CC(=O)O[C@H]1C(=O)[C@@]2(C)[C@H]([C@H](OC(=O)c3ccccc3)[C@]3(O)C[C@H](OC(=O)[C@H](O)[C@@H](NC(=O)c4ccccc4)c4ccccc4)C(C)=C1C3(C)C)[C@]1(OC(C)=O)CO[C@@H]1C[C@@H]2O` [Paclitaxel]: the IC50 in [1] is 0.19 ± 0.4 µM; in [2] it was less than 0.1 µM; in data set [3], 0.1 µM; in data set [4], 0.003 µM.

In general, melting point refers to the temperature, or range, at which the solid turns liquid. As to `COc1ccc(C2C([N+](=O)[O-])C(CC(C)C)NC23C(=O)Nc2ccccc23)cc1OC` (stereo not drawn) [Compound 4h, 3′-(3,4-dimethoxyphenyl)-5′-isobutyl-4′-nitrospiro[indoline-3,2′-pyrrolidin]-2-one], the melting point was in the range of 73 to 75 °C. The IC50 in data set [5] is greater than 100 µM. Also, the IC50 in data set [6] is greater than 100 µM. The IC50 in [7] is greater than 100 µM. Further, the IC50 in [8] was greater than 100 µM.

On to `COc1ccc(C2C([N+](=O)[O-])C3CCCN3C23C(=O)Nc2ccc(Br)cc23)cc1OC` (stereo not drawn) [Compound 4w, 5-bromo-2′-(3,4-dimethoxyphenyl)-1′-nitro-1′,2′,5′,6′,7′,7a′-hexahydrospiro [indoline-3,3′-pyrrolizin]-2-one], for which the melting point lay within 195 to 197 °C. The IC50 in data set [5] was greater than 100 µM. In [6], the IC50 is greater than 100 µM. In addition, the IC50 in data set [7] is greater than 100 µM. In data set [8], the IC50 was greater than 100 µM.

Take `COc1cc(C2C([N+](=O)[O-])C3CCCN3C23C(=O)Nc2ccccc23)ccc1OCc1ccccc1` (stereo not drawn) [Compound 4n, 2′-(4-(benzyloxy)-3-methoxyphenyl)-1′-nitro-1′,2′,5′,6′,7′,7a′-hexahydrospiro[indoline-3,3′-pyrrolizin]-2-one]: the melting point was in the range of 66 to 68 °C. The IC50 in data set [5] is greater than 100 µM. In addition, the IC50 in [6] is greater than 100 µM. The half-inhibitory concentration (IC50) in data set [7] was greater than 100 µM. Also, the IC50 in data set [8] was greater than 100 µM.

With `COc1ccc(C2C([N+](=O)[O-])C(Cc3ccccc3)NC23C(=O)Nc2ccc(Br)cc23)cc1OCc1ccccc1` (stereo not drawn) [Compound 4g, 5′-benzyl-3′-(3-(benzyloxy)-4-methoxyphenyl)-5-bromo-4′-nitrospiro[indoline-3,2′-pyrrolidin]-2-one], the melting point is 155 to 157 °C. In addition, in [5], the IC50 was greater than 100 µM. Also, the concentration for half-maximal inhibition (IC50) in data set [6] is greater than 100 µM. In addition, the 50% inhibitory concentration (IC50) in [7] is greater than 100 µM. In addition, the IC50 in data set [8] is greater than 100 µM.

As for `COc1ccc(C2C([N+](=O)[O-])C3CCCN3C23C(=O)Nc2ccccc23)cc1` (stereo not drawn) [Compound 4r, 2′-(4-methoxyphenyl)-1′-nitro-1′,2′,5′,6′,7′,7a′-hexahydrospiro[indoline-3,3′-pyrrolizin]-2-one], the melting point lay in the range of 116 to 118 °C. In data set [5], the half-maximal inhibitory concentration (IC50) was greater than 100 µM. Moreover, in [6], the 50% inhibitory concentration (IC50) is greater than 100 µM. In addition, in [7], the IC50 is greater than 100 µM. In [8], the 50% inhibitory concentration (IC50) was greater than 100 µM.

`COc1ccc(OC)c(C2C([N+](=O)[O-])C3CCCN3C23C(=O)Nc2ccccc23)c1` (stereo not drawn) [Compound 4s, 2′-(2,5-dimethoxyphenyl)-1′-nitro-1′,2′,5′,6′,7′,7a′-hexahydrospiro[indoline-3,3′-pyrrolizin]-2-one] gave a melting point of 174 to 176 °C. The IC50 in [5] is greater than 100 µM. Further, in data set [6], the IC50 was greater than 100 µM. Also, the IC50 in [7] is greater than 100 µM. In [8], the IC50 is greater than 100 µM.

`COc1ccc(OC)c(C2C([N+](=O)[O-])C(CC(C)C)NC23C(=O)Nc2ccc(Br)cc23)c1` (stereo not drawn) [Compound 4c, 5-bromo-3′-(2,5-dimethoxyphenyl)-5′-isobutyl-4′-nitrospiro[indoline-3,2′-pyrrolidin]-2-one]: the melting point was 142 to 144 °C. For the same molecule, in data set [5], the IC50 is 33.5 µM. For the same molecule, in data set [6] (BEAS-2B IC50 / A549 IC50), the “S.I. Selectivity index lung (IC50 normal cells/IC50 cancer cells)” value amounted to 0.96. Further, in [6], the IC50 is 35 µM. The IC50 in data set [7] stood at 37.6 µM. The half-maximal inhibitory concentration (IC50) in data set [8] came to 60.3 µM. In addition, the “S.I. Selectivity index liver (IC50 normal cells/IC50 cancer cells)” value in [8] (LO2 IC50 / HepG2 IC50) came to 0.62.

Consider `COc1ccc(OC)c(C2C([N+](=O)[O-])C(CC(C)C)NC23C(=O)Nc2ccccc23)c1` (stereo not drawn) [Compound 4a, 3′-(2,5-dimethoxyphenyl)-5′-isobutyl-4′-nitrospiro[indoline-3,2′-pyrrolidin]-2-one], for which the melting point fell in the range of 182 to 184 °C. In addition, the IC50 in data set [5] is greater than 100 µM. Besides, in data set [6], the IC50 is greater than 100 µM. Further, the IC50 in data set [7] was greater than 100 µM. The IC50 in data set [8] was greater than 100 µM.

Molecule `COc1ccc(OC)c(C2C([N+](=O)[O-])C(C)NC23C(=O)Nc2ccccc23)c1` (stereo not drawn) [Compound 4b, 3′-(2,5-dimethoxyphenyl)-5′-methyl-4′-nitrospiro[indoline-3,2′-pyrrolidin]-2-one] yielded a melting point of 150 to 152 °C. In addition, the IC50 in [5] was greater than 100 µM. The half-inhibitory concentration (IC50) in data set [6] is greater than 100 µM. The 50% inhibitory concentration (IC50) in data set [7] was greater than 100 µM. For the same molecule, in data set [8], the IC50 was greater than 100 µM.
